Some test systems named below: HCT-116 colon; OVCAR-4 ovarian; SF-295 CNS; SK-MEL-2 melanoma; SNB-19 CNS; MCF7 breast; SK-MEL-5 melanoma; BT-549 breast; PC-3 prostate; 786-0 renal.
Experiment in all cases: NCI anticancer screen, dose series, 48 h

This is an account of results in PubChem BioAssay (NCI).

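In this assay, cells in 96-well plates receive the compound at five concentrations for 48 hours. Endpoints are linearly interpolated between the surrounding concentrations. TGI: total growth inhibition.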

In the case of `COCOc1ccc(OC)cc1`, the TGI with HCT-116 colon, with OVCAR-4 ovarian, in the experiment on SF-295 CNS, in the experiment on SK-MEL-2 melanoma, with SNB-19 CNS and with MCF7 breast was greater than 100 µM throughout. The molecule also showed a TGI in the experiment with SK-MEL-5 melanoma greater than 100 µM.
For `COc1ccc(N2C(=O)c3c4c(c5c([nH]c6ncccc65)c3C2=O)CCC(C(C)(C)C)C4)cc1` (stereo not drawn), the TGI in the experiment on BT-549 breast, in the experiment with HCT-116 colon, in the experiment on OVCAR-4 ovarian, in the experiment with SF-295 CNS, with SNB-19 CNS and with PC-3 prostate was greater than 100 µM throughout. For the same molecule, the TGI in the experiment with MCF7 breast, in the experiment with SK-MEL-5 melanoma and with 786-0 renal was greater than 100 µM each time.
In the case of `C/C(=C\c1ccccc1)C(=O)CCN1CCOCC1`, the TGI is greater than 56.4 µM in the experiment with HCT-116 colon; 32.9 µM in the experiment with OVCAR-4 ovarian; greater than 100 µM in the experiment with SF-295 CNS; greater than 59.9 µM in the experiment with SK-MEL-2 melanoma; greater than 62.1 µM with SNB-19 CNS; 20.9 µM in the experiment on MCF7 breast. Besides, the TGI in the experiment with SK-MEL-5 melanoma is greater than 60.1 µM.
Turning to `C/C(=N/NC(N)=S)c1ccc2ccccc2c1`, the TGI in the experiment with HCT-116 colon is 78.4 µM; with OVCAR-4 ovarian, greater than 100 µM; in the experiment on SF-295 CNS, greater than 100 µM; in the experiment on SK-MEL-2 melanoma, 51.1 µM; in the experiment on SNB-19 CNS, greater than 100 µM; in the experiment on SK-MEL-5 melanoma, greater than 100 µM.
Turning to `CSC1CC2C(CC1(C)O)C2(C)C` (stereo not drawn), the TGI in the experiment on HCT-116 colon, in the experiment with OVCAR-4 ovarian, in the experiment with SK-MEL-2 melanoma, in the experiment with SNB-19 CNS, in the experiment with SK-MEL-5 melanoma and in the experiment on 786-0 renal was greater than 100 µM each time.
Turning to `CCNC(=O)Nc1ccccn1`, the TGI with BT-549 breast, in the experiment on HCT-116 colon, with OVCAR-4 ovarian, with SF-295 CNS, in the experiment on SNB-19 CNS and in the experiment on PC-3 prostate was greater than 100 µM throughout. Besides, the TGI in the experiment with MCF7 breast, with SK-MEL-5 melanoma and in the experiment with 786-0 renal was greater than 100 µM throughout.
On to `CCN(CC)CCOC(NC(C)=O)(c1ccccc1)c1ccccc1`, for which the TGI with HCT-116 colon, in the experiment with OVCAR-4 ovarian, with SF-295 CNS, in the experiment with SNB-19 CNS, in the experiment on MCF7 breast and with SK-MEL-5 melanoma was greater than 100 µM in each case. Besides, the TGI with 786-0 renal was greater than 100 µM.
As to `CCOC(=O)C1=C(C(C)=O)CSC(c2ccccc2)=N1`, the TGI in the experiment with HCT-116 colon, with OVCAR-4 ovarian, in the experiment on SF-295 CNS, with SK-MEL-2 melanoma, with SNB-19 CNS and with MCF7 breast was greater than 100 µM throughout. The molecule further returned a TGI in the experiment on SK-MEL-5 melanoma greater than 100 µM.
Consider `COC(=O)c1csnn1`, for which the TGI in the experiment with HCT-116 colon, with SF-295 CNS, in the experiment with SNB-19 CNS, in the experiment on SK-MEL-5 melanoma and in the experiment on 786-0 renal was greater than 100 µM each time.
`Cc1cc2c(C)cc(=O)[nH]c2cc1N`: the TGI in the experiment on BT-549 breast, in the experiment on HCT-116 colon, in the experiment with OVCAR-4 ovarian, with SF-295 CNS, in the experiment on SNB-19 CNS and in the experiment with PC-3 prostate was greater than 100 µM in each case. Further, the TGI in the experiment with MCF7 breast, in the experiment on SK-MEL-5 melanoma and with 786-0 renal was greater than 100 µM each time.
Consider `CCC(C(=O)O)c1ccc(OCc2ccccc2)cc1` (stereo not drawn), for which the TGI with HCT-116 colon, in the experiment on OVCAR-4 ovarian, in the experiment with SF-295 CNS, in the experiment with SK-MEL-2 melanoma, in the experiment with SNB-19 CNS and in the experiment with SK-MEL-5 melanoma was greater than 100 µM in each case.
In the case of `COc1ccc(-c2cc(=O)c3cc4c(cc3[nH]2)OCO4)c(OC)c1OC`, the TGI with HCT-116 colon, in the experiment with OVCAR-4 ovarian, with SF-295 CNS, in the experiment with SK-MEL-2 melanoma, in the experiment with SNB-19 CNS and with SK-MEL-5 melanoma was greater than 100 µM throughout. For the same molecule, the TGI in the experiment on 786-0 renal is greater than 100 µM.
As to `CCC1=CCC23C(=O)C=CC(=O)C2(C1)C(=O)c1cccc(OC)c1C3=O` (stereo not drawn), the TGI in the experiment on HCT-116 colon is 30.4 µM; in the experiment with OVCAR-4 ovarian, 26.1 µM; in the experiment on SF-295 CNS it was greater than 100 µM; in the experiment on SK-MEL-2 melanoma, greater than 100 µM; in the experiment on SNB-19 CNS, 53.7 µM; with PC-3 prostate, 28.4 µM. Further, the TGI with MCF7 breast amounted to 32.8 µM; with SK-MEL-5 melanoma it was 31.5 µM; in the experiment with 786-0 renal, 24.8 µM.
Turning to `CCN(CC)CCNc1ccc2nnn3c4ccc(OC)cc4c(=O)c1c23`, the TGI with HCT-116 colon amounted to 14.5 µM; in the experiment on OVCAR-4 ovarian, 19.9 µM; in the experiment on SF-295 CNS, 18.6 µM; in the experiment with SK-MEL-2 melanoma it was 27.4 µM; with SNB-19 CNS it was 25.9 µM; in the experiment with SK-MEL-5 melanoma, 25.5 µM. For the same molecule, the TGI with 786-0 renal is 17.9 µM.
As to `CC(C)(C)C1=Cc2cc3cc(C(C)(C)C)[nH]c(=O)c3cc2S(=O)(=O)N1`, the TGI in the experiment on HCT-116 colon was 42.8 µM; with OVCAR-4 ovarian it was greater than 100 µM; in the experiment on SF-295 CNS, 94.4 µM; in the experiment on SK-MEL-2 melanoma, 38.2 µM; with SNB-19 CNS, greater than 100 µM; with 786-0 renal it was greater than 100 µM.
Turning to `OC[C@@H](O)[C@H]1NC[C@@H](O)[C@H]1O`, the TGI in the experiment on BT-549 breast, in the experiment with HCT-116 colon, in the experiment with OVCAR-4 ovarian, with SF-295 CNS, with SNB-19 CNS and in the experiment with PC-3 prostate was greater than 100 µM throughout. Further, the TGI in the experiment with MCF7 breast, in the experiment on SK-MEL-5 melanoma and in the experiment on 786-0 renal was greater than 100 µM in each case.
Take `COC(=O)c1c(C)cccc1/C=C1/Cc2c(C)cccc2C1=O`: the TGI with BT-549 breast, in the experiment on HCT-116 colon, in the experiment on OVCAR-4 ovarian, in the experiment on SF-295 CNS, with PC-3 prostate and in the experiment with MCF7 breast was greater than 100 µM each time. Moreover, the TGI with SK-MEL-5 melanoma and in the experiment on 786-0 renal was greater than 100 µM in each case.
As for `N#Cc1nc(-c2cc([N+](=O)[O-])cc([N+](=O)[O-])c2)oc1N`, the TGI with BT-549 breast, in the experiment with HCT-116 colon, in the experiment on OVCAR-4 ovarian, in the experiment on SF-295 CNS, in the experiment on SNB-19 CNS and in the experiment on PC-3 prostate was greater than 10 µM each time. In addition, the TGI in the experiment on MCF7 breast, in the experiment with SK-MEL-5 melanoma and with 786-0 renal was greater than 10 µM each time.
